The source of these data is US12102672B2, “Immunogenic sequences from a phage tail length tape measure protein, bacteria expressing the same and their use in treating a cancer” (INSTITUT GUSTAVE ROUSSY, priority 2017, dated 2024).

The subject of assay [1] is IFNg producing CD8^+ T (Tc1) cells. The conditions noted are these: naïve mice; cited from earlier work.
Assay [2] deals with TMP1-specific CD8+ T cells.
The subject of assay [3] is pTh17 cells. The assay can be described thus: Induction of pTh17 cells in secondary lymphoid organs of CTX-treated animals. It counts as in vivo. From the text:
The reasons for these differences were however unknown, and the inventors pursued their research to identify the factor(s) responsible for the immunogenic properties of the murine strain EH13144 and the human clones IGR4, IGR7 and IGR11, in order to derive new molecules or microorganisms useful in the treatment of cancer.

For assay [4], the system named is ileal bacterial colonies. The assay can be described thus: Culturomics and TMP PCR of ileal content after gavage with E. hirae 13144 and CTX. It counts as in vivo, C57BL/6 mice. The conditions noted are these: 76 colonies, oral gavage + systemic CTX. An excerpt:
. […] Also refer to FIG. 39.
PCR amplification of the TMP sequence (refer to FIG. 36) in each colony growing after seeding of ileal content in aerobic conditions to isolate Gram+ bacteria. A photograph of each agarose electrophoresis gel is shown for each animal. A depicts the results in 5 naive mice and B depicts the findings after CTX+oral gavage with the phage encoding bacterium. Each vertical lane corresponds to one bacterium identified in MALDI-TOF. Initials are detailed in the lower part of panel A. The positive control (Ctl+) represents the DNA of E. hirae 13144.
We cultivated the stools (of patients) or ileal material (mice) after several dilutions in aerobic conditions and permissive medium to allow isolation of enterococci colonies (according to a procedure described in (Samb-Ba et al., 2014)). We performed a PCR of the TMP sequence in each single cultivable Enterococcus colony. One colony was put in 100 μl of nuclease-free water to release the bacterial DNA and PCR was performed with 5 μl of DNA, 12.5 μl of PCR master mix (Thermoscientific), 5 μl of nuclease-free water and 1.25 μl of each TMP primers (20 µM). […] The sequence of primers are: forward 5′-[…]-3′ ID No: reverse 5′-(SEQ 191) and […]-3′ (SEQ ID No: 192) (amplicon 1026 bp). […]

Regarding “Enterococcus hirae 708 [Peptide 708, reference compound]”, in assay [1], the “immunogenic and oncomicrobiotic properties of the isolate” value was “induced IFNg producing CD8^+ T (Tc1) cells”.

As to “Enterococcus hirae strain 13144 [Peptide 13144]”, the “splenic CD8+ T cells recognizing the TMP1 peptide” value in assay [2] (day 12 following CTX/E. hirae 13144 regimen, FIG. 27F) is given as “Up to 1%”. The “enrichment of TMP1-specific CTLs in the TC1 subset harboring CCR9” value in assay [2] (spleens from naive and tumor bearers, tumor draining lymph nodes) is 3-5 fold. In assay [3], the “capacity to induce pTh17 cells in secondary lymphoid organs” value is listed as “significant capacity to induce pTh17 cells”. Moreover, the “in vivo transduction of by-stander Enterococci by the phage” value in assay [4] is given as “E. gallinarum was the only by-stander Enterococci transduced”.
